Results: patent US20220105183A1, “MICRO-NANO STRUCTURE FORMED BY SELF-ASSEMBLING ORGANIC SMALL MOLECULE COMPOUND AND USE THEREOF” (Qingdao University of Science and Technology, priority 2018, published 2022)

Key:
[1] = DLS particle size / self-assembly of the compounds in aqueous solution; type: physicochemical; details: micro-nano structure, 20 μM working solution in deionized water
Method: The term “particle size” refers to the size of particles, also known as “granularity” or “diameter”. When a certain physical characteristic or physical behavior of the measured particle is closest to a homogeneous sphere (or combination) of a certain diameter, the diameter (or combination) of the sphere is taken as the equivalent particle size of the measured particle. The particle size parameter of the micro-nano structure of the present invention is measured by the principle of dynamic light scattering (DLS), specifically measured by a laser particle size analyzer.
Taking the self-assembled micro-nano structure of Compound II-1 as an example, II-1 was dissolved in DMSO (also can be an organic solvent such as ethanol) to prepare a 2 mM storage solution, and a small amount of storage solution was added to deionized water to prepare 20 μM working solution. Took 10 μL and dropped it on copper mesh, observed and analyzed under transmission electron microscope (TEM), cryo-transmission electron microscope. Took 10 μL and dropped it on mica plate, observed and analyzed under atomic force microscope (AFM). In FIGS. 5, A, B, C and D were TEM photographs, cryo-transmission electron microscope photographs, AFM photographs, and AFM analysis data, respectively. According to the photographs and data, II-1 was self-assembled into nanosheets with a diameter of 40-70 nm and a thickness of 3.7-3.9 nm. […]
Among them, the particle size test results of II-12 to II-15 in aqueous solution are shown in FIG. 6, and the results of dynamic light scattering DLS of II-16 to 1-18 are shown in FIG. 7).

[2] = UV absorption, fluorescence emission and quantum yield in solutions of different polarities; type: physicochemical
Method: The Compound II-1 of the present invention was prepared as a 2 mM storage solution in DMSO, and then 10 μL was added to 2 mL of solutions with different polarities (including water, dimethyl sulfoxide, N,N-dimethylformamide, methanol, ethanol, acetone, methylene chloride, acetonitrile), a UV spectrophotometer was used to test the UV absorption and to find the maximum absorption wavelength. The molar extinction coefficient of II-1 in solutions of different polarities was calculated from the ultraviolet absorption spectrum. Excited by the maximum absorption wavelength, the fluorescence emission spectrum was tested by a fluorescence spectrometer, the data was plotted with origin and the integral area was calculated. The fluorescence quantum yield φx, φx=φs(Fx/Fs)(As/Ax)(λexs/λexx)(nx/ns)^2, was calculated from the obtained data to obtain the characteristic parameters of Compound II-1 in solutions of different polarities (Table 3).

[3] = Fluorescence imaging and photothermal treatment in sentinel lymphatic metastasis model mice; type: in vivo
Method: (§1) Cell preparation: The cells in the culture flask were digested with trypsin and placed in a centrifuge tube for use. The supernatant was discarded by centrifugation and counted. Then a large amount of medium was added and it was placed in a foam box to be taken to the company. The supernatant was removed by centrifugation, and about 3.5 mL of serum-free medium was added. It was prepared for injection.
(§2) After that, small animal fluorescence imaging and photothermal therapy can be performed.
(§3) Fluorescence imaging for the small animal was performed on the established mouse metastasis model. Using tail vein injection and intratumoral injection (FIG. 22), fluorescence detection was performed every 1 hour for a total of 5 hours.
(§4) The mice were treated with photothermal therapy after injection of tumor cells on the right hind foot pad with obvious sentinel lymph nodes (about 20 days). In this experiment, mice were randomly divided into 3 groups, each group 5 mice, saline+laser irradiation control group, intratumoral injection+laser irradiation experimental group and tail vein injection+laser irradiation experimental group, respectively.
(§5) After photothermal treatment of the mice, the mice were photographed and their weights were recorded every 5 days. […] After the mice were stained with ink on the lungs on day 20, the lungs of the mice were photographed.

[4] = system: T4 cells; assay: as above; type: in vivo; details: for tumor metastasis in the lungs, ink staining: day 20; for temperature at sentinel lymph nodes under laser: 808 nm laser (1.5 W/cm2) 10 minutes
Method: as §1, §2, §3, §4, §5

CCN1C(=CC=C2CCCC(C=CC3=C(C#N)C(=C(C#N)C#N)OC3(C)C)=C2Cl)C(C)(C)c2ccccc21 [II-1]
DLS particle size peak (nm) [1]: 104 nm
DLS particle size range (nm) [1]: 33-266 nm
Φ (fluorescence quantum yield) ([2]; N,N-dimethylformamide): 0.19%
ε*10^4 ([2]; N,N-dimethylformamide): 7.92 M^−1cm^−1
λem ([2]; N,N-dimethylformamide): 853 nm
λmax ([2]; N,N-dimethylformamide): 844 nm
Φ (fluorescence quantum yield) ([2]; acetone): 0.29%
ε*10^4 ([2]; acetone): 8.91 M^−1cm^−1
λem ([2]; acetone): 851 nm
λmax ([2]; acetone): 832 nm
Φ (fluorescence quantum yield) ([2]; acetonitrile): 0.35%
ε*10^4 ([2]; acetonitrile): 9.15 M^−1cm^−1
λem ([2]; acetonitrile): 850 nm
λmax ([2]; acetonitrile): 832 nm
Φ (fluorescence quantum yield) ([2]; dichloromethane): 0.35%
ε*10^4 ([2]; dichloromethane): 8.55 M^−1cm^−1
λem ([2]; dichloromethane): 850 nm
λmax ([2]; dichloromethane): 834 nm
Φ (fluorescence quantum yield) ([2]; dimethyl sulfoxide): 0.12%
ε*10^4 ([2]; dimethyl sulfoxide): 10.24 M^−1cm^−1
λem ([2]; dimethyl sulfoxide): 854 nm
λmax ([2]; dimethyl sulfoxide): 848 nm
Φ (fluorescence quantum yield) ([2]; ethanol): 0.25%
ε*10^4 ([2]; ethanol): 10.74 M^−1cm^−1
λem ([2]; ethanol): 851 nm
λmax ([2]; ethanol): 828 nm
Φ (fluorescence quantum yield) ([2]; methanol): 0.19%
ε*10^4 ([2]; methanol): 11.24 M^−1cm^−1
λem ([2]; methanol): 850 nm
λmax ([2]; methanol): 830 nm
Φ (fluorescence quantum yield) ([2]; water): 0.11%
ε*10^4 ([2]; water): 2.76 M^−1cm^−1
λem ([2]; water): 840 nm
λmax ([2]; water): 730 nm
body weight ([3]; intratumoral injection + laser): stable in a healthy state
body weight ([3]; tail vein injection + laser): decreased on the tenth day
scars at the sentinel lymph nodes over time ([4]; intratumoral injection + laser): obviously healed
tumor metastasis in the lungs, ink staining ([4]; intratumoral injection + laser): no obvious tumor metastasis
temperature at sentinel lymph nodes under laser ([4]; intratumoral injection): significantly higher than that in the saline injection group
entry into the sentinel lymph node, fluorescence ([4]; intratumoral injection, detection every 1 hour for 5 hours): can obviously enter the sentinel lymph node of mice
day on which mice died (first) ([4]; tail vein injection + laser): 15 days
scars at the sentinel lymph nodes over time ([4]; tail vein injection + laser): showed a tendency to heal
tumor metastasis in the lungs, ink staining ([4]; tail vein injection + laser): obvious tumor metastasis
temperature at sentinel lymph nodes under laser ([4]; tail vein injection): significantly higher than that in the saline injection group
